# Patent US8853391B2, “Tricyclic azaindoles” (Merck Patent GmbH, priority 2008, dated 2014)
# Molecular target: Src (Homo sapiens, UniProt P12931)
# Assay: Src kinase inhibition (IC50)
# Type: biochemical
# Description: Other assays are known from the literature and could readily be performed by the person skilled in the art (see, for example, Dhanabal et al., Cancer Res. 59:189-197; Xin et al., J. Biol. Chem. 274:9116-9121; Sheu et al., Anticancer Res. 18:4435-4441; Ausprunk et al., Dev. Biol. 38:237-248; Gimbrone et al., J. Natl. Cancer Inst. 52:413-427; Nicosia et al., In Vitro 18:538-549).
# Sequence of Src (P12931 whole entry, species assumed): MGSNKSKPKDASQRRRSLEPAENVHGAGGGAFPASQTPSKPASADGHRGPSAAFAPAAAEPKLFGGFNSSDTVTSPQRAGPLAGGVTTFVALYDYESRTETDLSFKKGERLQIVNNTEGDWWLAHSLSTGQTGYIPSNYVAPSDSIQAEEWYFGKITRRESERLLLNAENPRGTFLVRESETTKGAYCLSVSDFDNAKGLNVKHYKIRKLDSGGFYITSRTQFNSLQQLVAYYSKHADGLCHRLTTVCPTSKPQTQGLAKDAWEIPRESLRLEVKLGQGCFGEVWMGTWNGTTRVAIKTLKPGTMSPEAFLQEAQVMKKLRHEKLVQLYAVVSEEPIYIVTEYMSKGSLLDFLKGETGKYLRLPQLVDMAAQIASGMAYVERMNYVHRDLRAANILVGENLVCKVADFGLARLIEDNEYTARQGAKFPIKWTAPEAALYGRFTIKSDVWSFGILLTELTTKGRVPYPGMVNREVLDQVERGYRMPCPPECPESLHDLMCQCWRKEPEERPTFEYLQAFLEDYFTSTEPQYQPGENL
row,IC50,SMILES
1,11 to 100 nM,"CC(=O)N1CCc2[nH]c3nccc(Nc4c(Cl)ccc5c4OCO5)c3c2C1 [Example 15, 1-[4-(5-Chloro-benzo[1,3]dioxol-4-ylamino)-5,7,8,9-tetrahydro-dipyrido[2,3-b;3′,4′-d]pyrrol-6-yl]-ethanone]"
2,101 to 1000 nM,"O=C(c1ccccc1)N1CCc2[nH]c3nccc(Nc4c(Cl)ccc5c4OCO5)c3c2C1 [Example 67, [4-(5-Chloro-benzo[1,3]-dioxol-4-ylamino)-5,7,8,9-tetrahydro-dipyrido[2,3-b;3′,4′-d]pyrrol-6-yl]-phenyl-methanone]"
3,101 to 1000 nM,"O=C(C1CC1)N1CCc2[nH]c3nccc(Nc4c(Cl)ccc5c4OCO5)c3c2C1 [Example 68, [4-(5-Chloro-benzo[1,3]-dioxol-4-ylamino)-5,7,8,9-tetrahydro-dipyrido[2,3-b;3′,4′-d]pyrrol-6-yl]-cyclopropyl-methanone]"
4,101 to 1000 nM,"O=C(C1CCC1)N1CCc2[nH]c3nccc(Nc4c(Cl)ccc5c4OCO5)c3c2C1 [Example 69, [4-(5-Chloro-benzo[1,3]-dioxol-4-ylamino)-5,7,8,9-tetrahydro-dipyrido[2,3-b;3′,4′-d]pyrrol-6-yl]-cyclobutyl-methanone]"
5,101 to 1000 nM,"O=C(C1CCCC1)N1CCc2[nH]c3nccc(Nc4c(Cl)ccc5c4OCO5)c3c2C1 [Example 70, [4-(5-Chloro-benzo[1,3]-dioxol-4-ylamino)-5,7,8,9-tetrahydro-dipyrido[2,3-b;3′,4′-d]pyrrol-6-yl]-cyclopentyl-methanone]"
6,101 to 1000 nM,"O=C(C1CCCCC1)N1CCc2[nH]c3nccc(Nc4c(Cl)ccc5c4OCO5)c3c2C1 [Example 71, [4-(5-Chloro-benzo[1,3]-dioxol-4-ylamino)-5,7,8,9-tetrahydro-dipyrido[2,3-b;3′,4′-d]pyrrol-6-yl]-cyclohexyl-methanone]"
